Data from US7074743B1, “Herbicidal composition comprising 4-iodo-2-[3-(4-methoxy-6-methyl-1,3,5-triazin-2-yl)ureidosulfonyl]benzoic esters” (priority 1995, dated 2006).

How the values were obtained:
Format in all cases: in vivo
[1] = test system: Avena fatua; assay: Herbicidal action on AVEFA, visual scoring vs untreated, post-emergence 2-4 leaf stage; details: Table 11
Procedure: (§1) The examples given below were performed in the greenhouse and, in some cases, in field trials.
(§2) The herbicides, or combinations, were applied in cereals after the weeds had emerged naturally using plot sprayers. After application, the results, such as damage to the crop plants and effect on broad-leaved weeds/grass weeds were assessed by means of visual scoring. The herbicidal action was assessed qualitatively and quantitatively by comparing untreated and treated plots on the basis of the effect on plant growth and the development of chloroses and necroses down to the complete destruction of the weeds (0–100%). The application was effected when the crop plants and weeds were in the 2–4 leaf stage. The test was evaluated approximately 4 weeks after application.
(§3) In the greenhouse experiments, the crop plants and broadleaved weeds/grass weeds were grown in No. 13 pots and treated in the 2–4 leaf stage. The pots were subsequently placed in the greenhouse under good growth conditions (temperature, atmospheric humidity, water supply).
(§4) The assessments were carried out similarly to those in the field trials, i.e. visual scoring of the treated plants in comparison with untreated control variants. These assessments were carried out 3 weeks after applying the test preparations and their combinations. The experiments had been set up in two replications.
(§5) To assess the combination effects, the activities of the individual components were added and compared with the activity of the mixtures in equal doses. It was frequently observed that the efficacies of the combinations exceeded the total of the individual activities.
(§6) In cases with less clear effects, the expected value was calculated using Colby's formula and compared with the empirically determined result. The calculated efficacy of a combination which is expected in theory is determined is using S.R. Colby's formula: “Calculation of synergistic and antagonistic responses of herbicide combinations”, Weeds 15 (1967), pages 20 to 22.
(§7) [formula] where • X=% damage caused by herbicide A at a rate of ×kg a.i./ha; • Y=% damage caused by herbicide B at a rate of y kg a.i./ha; • Z=% damage caused by a further herbicide C at a rate of z kg a.i./ha; • E=expected value, i.e. expected damage caused by herbicides A+B (or A+B+C) at x+y (or x+y+z) kg a.i./ha.
(§8) Synergistic effects were assumed to be when the empirical value exceeded the expected value. In the case of combinations with individual components with the same active substances, comparisons via the total formula were also possible.

[2] = test system: Viola arvensis; assay: Herbicidal action on VIOAR, visual scoring vs untreated, post-emergence 2-4 leaf stage; details: Table 7
Procedure: as §1, §2, §3, §4, §5, §6, §7, §8

[3] = test system: Apera spica venti; assay: Herbicidal action on APESV, visual scoring vs untreated, post-emergence 2-4 leaf stage; details: Table 1
Procedure: as §1, §2, §3, §4, §5, §6, §7, §8

[4] = test system: Secale cereale; assay: Damage to crop plant SECCW, visual scoring vs untreated
Procedure: as §1, §2, §3, §4

Question: How did the AVEFA % control ([1]; 5 g of a.i./ha) turn out when `COC(=O)c1ccc(I)cc1S(=O)(=O)NC(=O)Nc1nc(C)nc(OC)n1.[Na]` [A), sodium salt of methyl 4-iodo-2-[3-(4-methoxy-6-methyl-1,3,5-triazin-2-yl)ureidosulfonyl]benzoate] was run?
Answer: 60%

Question: What about the AVEFA % control ([1]; 10 g of a.i./ha) of the same compound?
Answer: 80%

Question: What about the VIOAR % control ([2]; 2.5 g of a.i./ha) of the same compound?
Answer: 58%

Question: And the VIOAR % control ([2]; 5 g of a.i./ha)?
Answer: 75%

Question: And the VIOAR % control ([2]; 10 g of a.i./ha)?
Answer: 95%

Question: What about the VIOAR % control ([2]; 20 g of a.i./ha) of the same compound?
Answer: 98%

Question: And the APESV % control ([3]; 3 g of a.i./ha)?
Answer: 85%

Question: What about the APESV % control ([3]; 5 g of a.i./ha) of the same compound?
Answer: 93%

Question: And the APESV % control ([3]; 10 g of a.i./ha)?
Answer: 97%

Question: And the APESV % control ([3]; 20 g of a.i./ha)?
Answer: 98%

Question: And the SECCW % damage ([4]; Table 6, 5 g of a.i./ha)?
Answer: 0%

Question: And the SECCW % damage ([4]; Table 6, 10 g of a.i./ha)?
Answer: 0%

Question: And the SECCW % damage ([4]; Table 6, 15 g of a.i./ha)?
Answer: 5%

Question: And the SECCW % damage ([4]; Table 10, 5 g of a.i./ha)?
Answer: 0%

Question: What about the SECCW % damage ([4]; Table 10, 10 g of a.i./ha) of the same compound?
Answer: 0%

Question: And the SECCW % damage ([4]; Table 10, 15 g of a.i./ha)?
Answer: 5%
